Literature values in patent publication US20150246043A1, “ORAL DOSAGE FORMS FOR MODIFIED RELEASE COMPRISING RUXOLITINIB” (ratiopharm GmbH, priority 2012, published 2015).

Columns and labels:
[1] = class I = high permeability, high solubility
[2] = reported for Ruxolitinib and especially its pharmaceutically acceptable salts like the phosphate salt (WO 2008/157208)

Biopharmaceutics Classification System class [1]: class I
aqueous solubility [2]: very high
SMILES: N#CC[C@H](C1CCCC1)n1cc(-c2ncnc3[nH]ccc23)cn1 [Ruxolitinib, (3R)-3-cyclopentyl-3-[4-(7H-pyrrolo[2,3-d]pyrimidin-4-yl)pyrazol-1-yl]propanenitrile]
